Laboratory results taken from US10526316B2, “Quinoxaline and pyridopyrazine derivatives as PI3Kβ inhibitors” (Janssen Pharmaceutica NV, priority 2015, dated 2020).
Like-named read-outs stand apart in the source and are kept apart here.

Assays:
[1] = target: T1, PI3Kδ (Homo sapiens, UniProt O00329); experiment: Enzyme binding assay (KINOMEscan, DiscoveRx); conditions: PIK3Cδ_h
T1 construct: purchased DiscoveRx Corporation, San Diego (contract service, KINOMEscan)
T1 sequence (O00329 1-1044): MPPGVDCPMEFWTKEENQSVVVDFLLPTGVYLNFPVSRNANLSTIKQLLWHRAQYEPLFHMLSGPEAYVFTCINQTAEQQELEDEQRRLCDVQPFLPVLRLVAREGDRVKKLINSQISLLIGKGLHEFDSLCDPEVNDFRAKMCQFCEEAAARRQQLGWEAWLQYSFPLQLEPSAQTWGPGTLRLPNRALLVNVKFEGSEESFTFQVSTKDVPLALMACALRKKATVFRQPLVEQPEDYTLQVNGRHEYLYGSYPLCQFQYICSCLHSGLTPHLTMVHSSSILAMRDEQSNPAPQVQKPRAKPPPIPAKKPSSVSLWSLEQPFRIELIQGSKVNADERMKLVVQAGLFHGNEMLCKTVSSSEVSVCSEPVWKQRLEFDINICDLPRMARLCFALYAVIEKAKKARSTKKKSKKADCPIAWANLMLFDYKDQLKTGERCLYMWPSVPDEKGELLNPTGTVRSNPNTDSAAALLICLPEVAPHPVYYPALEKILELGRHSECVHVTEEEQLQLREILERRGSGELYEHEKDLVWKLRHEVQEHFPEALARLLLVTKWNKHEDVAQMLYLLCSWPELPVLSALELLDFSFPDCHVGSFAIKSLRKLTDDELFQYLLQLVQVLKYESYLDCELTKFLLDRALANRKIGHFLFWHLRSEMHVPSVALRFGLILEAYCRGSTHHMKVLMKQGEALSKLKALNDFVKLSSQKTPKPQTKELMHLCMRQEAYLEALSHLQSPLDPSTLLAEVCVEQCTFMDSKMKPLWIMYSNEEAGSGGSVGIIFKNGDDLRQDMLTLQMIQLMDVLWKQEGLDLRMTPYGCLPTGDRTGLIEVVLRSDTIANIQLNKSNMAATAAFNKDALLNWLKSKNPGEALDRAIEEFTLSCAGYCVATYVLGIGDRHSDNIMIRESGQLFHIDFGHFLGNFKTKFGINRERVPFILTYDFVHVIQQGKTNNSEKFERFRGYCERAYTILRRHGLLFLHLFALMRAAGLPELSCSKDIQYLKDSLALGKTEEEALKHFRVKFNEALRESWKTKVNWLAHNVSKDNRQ
Method in brief: (§1)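 KINOMEscan readout; values are kinase binding affinities.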

[2] = system: Akt phosphorylated at Thr308 in PC-3 cells; experiment: Cellular assay: phosphorylation of Akt at Thr308 in PC-3 cells (MSD ELISA); assay type: cell-based; conditions: PC-3 cells, 60 min compound incubation, MSD ELISA, read-out: IC50 pAkt_Thr308
Method in brief: (§2)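 Electrochemiluminescent sandwich ELISA read-out: phospho-specific capture (Ser473 or Thr308), Sulfo-tag anti-total Akt detection, signal proportional to phospho-Akt. Cells treated 60 min at 37° C with compound, DMSO 0.3%. IC50 fitted from five concentrations.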

[3] = target: T2, PI3Kβ (Homo sapiens, UniProt P42338); experiment: Enzyme binding assay (KINOMEscan, DiscoveRx); conditions: PIK3Cβ_h, read-out: Kd PIK3Cβ_h
T2 construct: purchased DiscoveRx Corporation, San Diego (contract service, KINOMEscan)
T2 sequence (P42338 whole entry): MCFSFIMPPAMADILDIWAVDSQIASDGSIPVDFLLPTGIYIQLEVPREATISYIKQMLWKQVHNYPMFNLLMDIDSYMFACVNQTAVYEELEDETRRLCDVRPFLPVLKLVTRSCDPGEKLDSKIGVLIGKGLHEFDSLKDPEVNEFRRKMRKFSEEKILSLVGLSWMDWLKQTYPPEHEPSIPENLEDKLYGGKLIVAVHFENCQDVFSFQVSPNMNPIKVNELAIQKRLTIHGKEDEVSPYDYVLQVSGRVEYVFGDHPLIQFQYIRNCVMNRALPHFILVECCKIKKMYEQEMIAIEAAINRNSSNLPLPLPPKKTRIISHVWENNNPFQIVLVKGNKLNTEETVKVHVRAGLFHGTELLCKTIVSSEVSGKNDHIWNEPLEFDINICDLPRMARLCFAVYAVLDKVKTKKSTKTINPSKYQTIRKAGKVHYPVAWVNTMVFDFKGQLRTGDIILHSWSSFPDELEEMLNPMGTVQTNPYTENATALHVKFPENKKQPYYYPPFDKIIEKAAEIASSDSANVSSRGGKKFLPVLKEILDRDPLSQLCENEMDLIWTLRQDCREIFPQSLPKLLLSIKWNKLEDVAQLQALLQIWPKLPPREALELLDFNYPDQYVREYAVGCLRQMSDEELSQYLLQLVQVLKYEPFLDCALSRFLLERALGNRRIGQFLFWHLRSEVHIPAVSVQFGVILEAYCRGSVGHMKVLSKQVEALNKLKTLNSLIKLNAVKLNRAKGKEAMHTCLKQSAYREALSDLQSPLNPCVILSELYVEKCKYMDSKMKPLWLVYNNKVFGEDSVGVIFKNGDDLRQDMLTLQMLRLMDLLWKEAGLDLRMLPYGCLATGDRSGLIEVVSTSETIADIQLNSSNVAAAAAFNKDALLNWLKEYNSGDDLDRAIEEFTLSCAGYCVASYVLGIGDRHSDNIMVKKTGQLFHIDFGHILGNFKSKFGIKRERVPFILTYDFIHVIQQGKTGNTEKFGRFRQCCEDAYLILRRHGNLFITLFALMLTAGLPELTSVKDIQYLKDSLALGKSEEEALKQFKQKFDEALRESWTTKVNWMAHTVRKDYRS
Method in brief: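 KINOMEscan binding platform; read-out is the inhibitor binding constant Kd (nM).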

[4] = target: T3, kinase enzymes (Homo sapiens, UniProt P48736); experiment: Enzyme binding assay (KINOMEscan, DiscoveRx), further kinases of Table A; conditions: PIK3Cγ_h
T3 construct: purchased DiscoveRx Corporation, San Diego (contract service, KINOMEscan)
T3 sequence (P48736 whole entry): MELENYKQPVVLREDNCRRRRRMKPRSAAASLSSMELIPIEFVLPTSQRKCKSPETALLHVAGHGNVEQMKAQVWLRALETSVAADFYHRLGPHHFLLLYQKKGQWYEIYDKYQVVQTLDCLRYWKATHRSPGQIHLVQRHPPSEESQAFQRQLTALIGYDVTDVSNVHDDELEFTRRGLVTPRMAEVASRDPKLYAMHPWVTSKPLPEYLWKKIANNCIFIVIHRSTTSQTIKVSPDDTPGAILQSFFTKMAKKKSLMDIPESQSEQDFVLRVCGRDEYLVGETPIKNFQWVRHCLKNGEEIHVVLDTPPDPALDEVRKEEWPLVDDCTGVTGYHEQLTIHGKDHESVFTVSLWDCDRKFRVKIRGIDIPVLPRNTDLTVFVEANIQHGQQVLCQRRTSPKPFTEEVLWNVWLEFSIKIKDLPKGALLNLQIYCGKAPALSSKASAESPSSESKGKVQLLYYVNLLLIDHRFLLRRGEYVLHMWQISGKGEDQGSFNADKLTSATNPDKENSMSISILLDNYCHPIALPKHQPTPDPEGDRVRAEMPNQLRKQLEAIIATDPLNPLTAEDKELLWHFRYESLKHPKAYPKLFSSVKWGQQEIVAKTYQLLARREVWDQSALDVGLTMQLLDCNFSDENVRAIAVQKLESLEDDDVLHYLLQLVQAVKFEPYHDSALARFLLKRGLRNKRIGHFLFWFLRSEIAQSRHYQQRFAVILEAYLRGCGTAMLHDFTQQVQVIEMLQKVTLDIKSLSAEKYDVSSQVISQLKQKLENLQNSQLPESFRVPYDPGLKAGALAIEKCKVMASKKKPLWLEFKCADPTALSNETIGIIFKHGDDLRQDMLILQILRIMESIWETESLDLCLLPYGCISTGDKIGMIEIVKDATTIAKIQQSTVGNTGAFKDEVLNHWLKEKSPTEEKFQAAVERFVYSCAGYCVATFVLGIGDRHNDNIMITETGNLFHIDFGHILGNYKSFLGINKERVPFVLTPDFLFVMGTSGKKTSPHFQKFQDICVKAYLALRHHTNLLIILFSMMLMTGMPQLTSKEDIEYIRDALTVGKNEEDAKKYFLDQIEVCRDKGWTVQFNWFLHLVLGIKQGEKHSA
Method in brief: as §1

[5] = target: T4, kinase enzymes (Homo sapiens, UniProt P42336); experiment: as above; conditions: PIK3Cα_h
T4 construct: purchased DiscoveRx Corporation, San Diego (contract service, KINOMEscan)
T4 sequence (P42336 whole entry): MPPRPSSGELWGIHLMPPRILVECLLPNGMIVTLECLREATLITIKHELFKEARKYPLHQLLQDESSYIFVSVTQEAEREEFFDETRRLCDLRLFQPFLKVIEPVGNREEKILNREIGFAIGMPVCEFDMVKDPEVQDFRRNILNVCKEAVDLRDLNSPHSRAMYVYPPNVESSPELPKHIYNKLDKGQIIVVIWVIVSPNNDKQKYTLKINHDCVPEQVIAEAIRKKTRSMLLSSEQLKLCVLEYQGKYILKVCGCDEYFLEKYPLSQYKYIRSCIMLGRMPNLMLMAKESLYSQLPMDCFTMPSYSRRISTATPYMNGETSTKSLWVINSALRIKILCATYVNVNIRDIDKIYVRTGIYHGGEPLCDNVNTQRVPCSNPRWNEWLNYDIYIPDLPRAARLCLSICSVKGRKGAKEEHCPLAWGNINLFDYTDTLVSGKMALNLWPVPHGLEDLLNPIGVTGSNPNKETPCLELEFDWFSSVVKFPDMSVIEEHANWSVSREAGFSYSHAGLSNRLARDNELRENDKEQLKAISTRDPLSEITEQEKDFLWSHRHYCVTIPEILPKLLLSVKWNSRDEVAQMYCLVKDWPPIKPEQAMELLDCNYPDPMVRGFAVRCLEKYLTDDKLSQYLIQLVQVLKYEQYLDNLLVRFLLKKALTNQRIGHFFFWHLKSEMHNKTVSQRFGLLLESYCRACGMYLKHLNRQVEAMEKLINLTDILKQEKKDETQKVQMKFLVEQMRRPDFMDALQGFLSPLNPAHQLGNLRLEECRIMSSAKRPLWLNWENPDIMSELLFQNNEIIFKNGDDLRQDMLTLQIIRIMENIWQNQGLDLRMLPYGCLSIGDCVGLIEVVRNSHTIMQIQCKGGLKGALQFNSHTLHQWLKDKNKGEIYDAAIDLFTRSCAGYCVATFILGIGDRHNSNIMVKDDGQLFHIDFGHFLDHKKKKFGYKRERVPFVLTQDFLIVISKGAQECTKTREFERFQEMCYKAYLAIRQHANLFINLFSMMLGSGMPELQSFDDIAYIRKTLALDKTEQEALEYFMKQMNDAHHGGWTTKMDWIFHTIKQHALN
Method in brief: as §1

[6] = target: T5, kinase enzymes (Homo sapiens, UniProt P42345); experiment: as above; conditions: MTOR_h
T5 construct: purchased DiscoveRx Corporation, San Diego (contract service, KINOMEscan)
Method in brief: as §1

[7] = system: Akt phosphorylated at Ser473 in PC-3 cells; experiment: Cellular assay: phosphorylation of Akt at Ser473 in PC-3 cells (MSD ELISA); assay type: cell-based; conditions: PC-3 cells, 60 min compound incubation, MSD ELISA, read-out: IC50 pAkt_S473
Method in brief: as §2

SMILES | Kd [1] [nM] | IC50 [2] [nM] | Kd [3] [nM] | Kd [4] [nM] | Kd [5] [nM] | Kd [6] [nM] | IC50 [7] [nM] | IC50 ([2]; Homo sapiens, PC-3, 1 h) [nM] | IC50 ([7]; Homo sapiens, PC-3, 1 h) [nM]
CC(Nc1cc(F)cc(F)c1)c1cc(C(=O)N2CCOCC2)cc2ncc(N3CCOCC3)nc12 (centres unmarked) [Compound 7] | 245 | 21 | 2 | 10000 | 513 | > 30200 | 42 | – | –
Fc1cc(F)cc(N2CCCC2c2cncc3ncc(N4CCOCC4)nc23)c1 (centres unmarked) [Compound 23] | 331 | – | 1 | 724 | 324 | 15100 | – | 42 | ~68
CC1CN(c2cnc3cc(C(=O)N(C)C)cc(C4CCCN4c4cc(F)cc(F)c4)c3n2)CCO1 (centres unmarked) [Compound 36] | 107 | – | 2 | 1590 | 224 | 15800 | – | 5 | 10
CC(Oc1cc(F)cc(F)c1)c1cc(C(=O)N(C)C)cc2ncc(N3CCOCC3)nc12 (centres unmarked) [Compound 53] | 692 | – | 3 | 21400 | 2950 | > 30200 | – | 148 | 214
CC(Oc1cc(F)ccc1NCCN)c1cc(C(=O)N(C)C)cc2ncc(N3CCOCC3)nc12 (centres unmarked) [Compound 79] | 204 | – | 2 | 20000 | 2290 | > 30200 | – | 123 | 158
CC(Nc1cccc(F)c1)c1cc(C(=O)N(C)C)cc2ncc(N3CCOCC3)nc12 (centres unmarked) [Compound 85] | 41 | – | 0.3 | 1660 | 257 | 562 | – | 78 | 48
CCN1CCN(C(=O)c2cc(C(C)Oc3cccc(F)c3)c3nc(N4CCOCC4)cnc3c2)CC1 (centres unmarked) [Compound 90] | 741 | – | 17 | 22900 | 9120 | > 30200 | – | > 513 | > 513
COC(=O)c1cc(C(C)Nc2cc(F)cc(Cl)c2)c2nc(N3CCOCC3)cnc2c1 (centres unmarked) [Compound 99] | 4680 | – | 52 | 11500 | 9770 | > 30200 | – | 355 | > 513
CC(Nc1cccc(F)c1)c1cc(CO)cc2ncc(N3CCOCC3)nc12 (centres unmarked) [Compound 100] | 295 | – | 1 | 1740 | 1290 | 14100 | – | 68 | 145
CNCCNC(=O)c1cc([C@@H](C)Oc2cccc(F)c2)c2nc(N3CCOCC3)cnc2c1 [Compound 122] | 151 | 26 | 0.3 | 5620 | 2880 | 25700 | 40 | – | –
CNCCNC(=O)c1cc([C@H](C)Oc2cccc(F)c2)c2nc(N3CCOCC3)cnc2c1 [Compound 123] | 2240 | – | 91 | 12600 | 9330 | 16600 | – | > 513 | > 513
CC(c1cc(C(=O)N(C)C)cc2ncc(N3CCOCC3)nc12)N(C)c1cccc(Cl)c1 (centres unmarked) [Compound 141] | 776 | – | 6 | 8130 | 6610 | > 30200 | – | 102 | 182

Next, values leading:

Kd [1] [nM] | IC50 [2] [nM] | Kd [3] [nM] | Kd [4] [nM] | Kd [5] [nM] | Kd [6] [nM] | IC50 [7] [nM] | IC50 ([2]; Homo sapiens, PC-3, 1 h) [nM] | IC50 ([7]; Homo sapiens, PC-3, 1 h) [nM] | SMILES
316 | – | 1 | 8130 | 1070 | > 30200 | – | 30 | 68 | CC(Nc1cc(F)cc(F)c1)c1cc(C(=O)N2CC3(C2)CS(=O)(=O)C3)cc2ncc(N3CCOCC3)nc12 (centres unmarked) [Compound 148]
102 | – | 1 | 3470 | 2000 | > 30200 | – | 15 | 16 | CNCC1CCN(C(=O)c2cc(C(C)Nc3cc(F)cc(F)c3)c3nc(N4CCOCC4)cnc3c2)CC1 (centres unmarked) [Compound 176]
1290 | – | 4 | 24000 | 2140 | > 30200 | – | 49 | 79 | CC(Nc1cc(F)cc(F)c1)c1cc(C(=O)N2CCC(NCC(F)(F)F)C2)cc2ncc(N3CCOCC3)nc12 (centres unmarked) [Compound 217]
1170 | – | 5 | 3090 | 537 | 3310 | – | > 513 | > 513 | CC(Nc1cc(F)cc(F)c1)c1cc(C(=O)NS(=O)(=O)C2CC2)cc2ncc(N3CCOCC3)nc12 (centres unmarked) [Compound 218]
1740 | – | 7 | 20400 | 3890 | 12600 | – | 96 | 186 | O=C(NCCO)c1cc(NCc2cc(F)cc(F)c2)c2nc(N3CCOCC3)cnc2c1 [Compound 229]
> 3310 | – | 52 | > 30200 | 17000 | > 10000 | – | 398 | ~457 | Cc1c(CNc2cc(C(=O)NCCO)cc3ncc(N4CCOCC4)nc23)cccc1C(F)(F)F [Compound 231]
7590 | – | 50 | 24500 | > 32000 | > 32000 | – | 79 | 214 | COC(=O)c1cc(C(C)Nc2cc(F)cc(F)c2)c2nc(N3CCOCC3)cnc2c1 (centres unmarked) [Compound 235]
158 | – | 2 | 813 | 112 | 1320 | – | > 513 | > 513 | CC(Nc1cc(F)cc(F)c1)c1cc(C(=O)O)cc2ncc(N3CCOCC3)nc12 (centres unmarked) [Compound 236]
71 | – | 1 | 145 | 66 | 1910 | – | > 513 | > 513 | CC(Nc1cc(F)cc(F)c1)c1cc(C(=O)NS(N)(=O)=O)cc2ncc(N3CCOCC3)nc12 (centres unmarked) [Compound 243]
2000 | – | 5 | > 30200 | 4900 | > 30200 | – | ~85 | 151 | COC(=O)[C@H]1CCCN1C(=O)c1cc(C(C)Nc2cc(F)cc(F)c2)c2nc(N3CCOCC3)cnc2c1 (some centres unmarked) [Compound 272]
2750 | – | 8 | > 10000 | 6310 | > 30200 | – | ~257 | 447 | COC(=O)[C@@H]1CCCN1C(=O)c1cc(C(C)Nc2cc(F)cc(F)c2)c2nc(N3CCOCC3)cnc2c1 (some centres unmarked) [Compound 273]
166 | – | 1 | 6460 | 2950 | > 30200 | – | 14 | 42 | CC(Nc1cc(F)c(F)c(F)c1)c1cc(C(=O)N(C)C2CCNC2)cc2ncc(N3CCOCC3)nc12 (centres unmarked) [Compound 296]
5250 | > 513 | 60 | 19500 | 13200 | > 30200 | > 513 | – | – | CC(Nc1ccc(F)c(F)c1)c1cc(C(=O)NCCN(C)C)cc2ncc(N3CCOCC3)nc12 (centres unmarked) [Compound 299b]
513 | – | 4 | 17000 | 2690 | > 30200 | – | 85 | 71 | CC(Nc1ccc(F)c(F)c1)c1cc(C(=O)N2CC[C@@H](O)C2)cc2ncc(N3CCOCC3)nc12 (some centres unmarked) [Compound 300]
